Reference: patent publication US20120101083A1, “S1P1 AGONISTS COMPRISING A BICYCLIC N-CONTAINING RING” (GLAXO GROUP LIMITED, priority 2009, published 2012)
Where a name gives a salt, the structure may show the parent alone.

What follows are molecules tested against T1, S1P1 receptor (S1P1 expressing RH7777 membranes) (Homo sapiens, UniProt P21453) (assay: S1P1 GTPγS assay). Conditions: tested in one of the above S1P1 assays (two GTPγS formats).
T1 construct: expressed in transfected cells; host or cells: RH7777 cells (membranes)
T1 sequence (P21453 whole entry): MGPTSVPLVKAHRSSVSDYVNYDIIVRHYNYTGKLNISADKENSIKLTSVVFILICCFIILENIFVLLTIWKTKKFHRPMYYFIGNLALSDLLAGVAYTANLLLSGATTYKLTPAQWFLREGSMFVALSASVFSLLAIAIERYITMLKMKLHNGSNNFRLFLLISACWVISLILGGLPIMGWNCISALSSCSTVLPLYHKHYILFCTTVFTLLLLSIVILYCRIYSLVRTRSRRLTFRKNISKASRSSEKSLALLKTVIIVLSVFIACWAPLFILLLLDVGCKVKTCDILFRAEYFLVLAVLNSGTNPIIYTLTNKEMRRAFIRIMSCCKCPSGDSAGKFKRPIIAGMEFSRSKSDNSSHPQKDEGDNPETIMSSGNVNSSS
Format: biochemical
Experimental: The potencies and efficacies of the compounds of this invention for the S1P1 receptor can be determined by GTPγS assay performed on the human cloned receptor as described herein.
Membrane preparation for S1P1 GTPγS assay
All steps were performed at 4° C. Cells were homogenised within a glass Waring blender for 2 bursts of 15 secs in 200 mls of buffer (50 mM HEPES, 1 mM leupeptin, 25 μg/ml bacitracin, 1 mM EDTA, 1 mM PMSF, 2 μM pepstatin A). The blender was plunged into ice for 5 mins after the first burst and 10-40 mins after the final burst to allow foam to dissipate. The material was then spun at 500 g for 20 mins and the supernatant spun for 36 mins at 48,000 g. The pellet was resuspended in the same buffer as above but without PMSF and pepstatin A. The material was then forced through a 0.6 mm needle, made up to the required volume, (usually x4 the volume of the original cell pellet), aliquoted and stored frozen at −80° C.
S1P1 expressing RH7777 membranes (1.5 μg/well) membranes (1.5 μg/well) were homogenised by passing through a 23 G needle. These were then adhered to WGA-coated SPA beads (0.125 mg/well) in assay buffer (HEPES 20 mM, MgCl2 10 mM, NaCl 100 mM and pH adjusted to 7.4 using KOH 5M). GDP 10 μM FAC and saponin 90 μg/ml FAC were also added
After 30 minutes precoupling on ice, the bead and membrane suspension was dispensed into white Greiner polypropylene LV 384-well plates (5 μl/well), containing […] of compound. 5 μl/well [^35S]-GTPγS (0.5 nM for S1P1 or 0.3 nM for S1P3 final radioligand concentration) made in assay buffer was then added to the plates. The final assay cocktail (10.1 μl) was then sealed, spun on a centrifuge, then read immediately on a Viewlux instrument.
Alternatively, after 30 minutes precoupling on ice, the bead and membrane suspension was mixed with ^35S]-GTPγS (0.5 nM final radioligand concentration) in assay buffer (HEPES 20 mM, MgCl2 10 mM, NaCl 100 mM and pH adjusted to 7.4 using KOH 5M) in a 1:1 ratio. The bead, membrane and radioligand suspension was dispensed into white Greiner polypropylene low volume 384-well plates (10 μl/well), containing 0.1 μl of a solution of test compound in 100% DMSO. The final assay cocktail (10.1 μl) was then sealed, spun on a centrifuge, then read immediately on a Viewlux instrument.
With `N#Cc1cc(-c2nc(-c3ccc4c(c3)CCN(CC(O)CO)CC4)no2)ccc1N1CC(F)C1` (stereo not drawn) [Example 104, 5-{3-[3-(2,3-dihydroxypropyl)-2,3,4,5-tetrahydro-1H-3-benzazepin-7-yl]-1,2,4-oxadiazol-5-yl}-2-(3-fluoro-1-azetidinyl)benzonitrile] the EC50 was greater than 10000 nM. With `CCCOc1ncc(-c2nc(-c3ccc4c(c3)CCN(C(=O)CN)CC4)no2)cc1C#N` [Example 107, 5-[3-(3-glycyl-2,3,4,5-tetrahydro-1H-3-benzazepin-7-yl)-1,2,4-oxadiazol-5-yl]-2-(propyloxy)-3-pyridinecarbonitrile] the EC50 was no more than 1000 nM. In the case of `CCCOc1ncc(-c2nc(-c3ccc4c(c3)CCN(C(CO)CO)CC4)no2)cc1C#N` [Example 109, 5-(3-{3-[2-hydroxy-1-(hydroxymethyl)ethyl]-2,3,4,5-tetrahydro-1H-3-benzazepin-7-yl}-1,2,4-oxadiazol-5-yl)-2-(propyloxy)-3-pyridinecarbonitrile], the EC50 is reported as no more than 1000 nM. Work on `CCOc1ncc(-c2nc(-c3ccc4c(c3)CCN(C(CO)CO)CC4)no2)cc1C#N` [Example 110, 2-(ethyloxy)-5-(3-{3-[2-hydroxy-1-(hydroxymethyl)ethyl]-2,3,4,5-tetrahydro-1H-3-benzazepin-7-yl}-1,2,4-oxadiazol-5-yl)-3-pyridinecarbonitrile] yielded an EC50 of no more than 1000 nM. With `CCOc1ncc(-c2nc(-c3ccc4c(c3)CCN(C(=O)CN)CC4)no2)cc1C#N` [Example 113, 2-(ethyloxy)-5-[3-(3-glycyl-2,3,4,5-tetrahydro-1H-3-benzazepin-7-yl)-1,2,4-oxadiazol-5-yl]-3-pyridinecarbonitrile] the EC50 was no more than 1000 nM. With `CCCOc1ncc(-c2nc(-c3ccc4c(c3)CCN(C[C@H](O)CO)CC4)no2)cc1C#N` [Example 115, 5-(3-{3-[(2S)-2,3-dihydroxypropyl]-2,3,4,5-tetrahydro-1H-3-benzazepin-7-yl}-1,2,4-oxadiazol-5-yl)-2-(propyloxy)-3-pyridinecarbonitrile] the EC50 was no more than 1000 nM. In the case of `CC(C)Oc1ccc(-c2nc(-c3ccc4c(c3)CCN(C(=O)C(C)(C)N)CC4)no2)cc1C#N` [Example 117, 5-{3-[3-(2-methylalanyl)-2,3,4,5-tetrahydro-1H-3-benzazepin-7-yl]-1,2,4-oxadiazol-5-yl}-2-[(1-methylethyl)oxy]benzonitrile], the EC50 is reported as no more than 1000 nM. With `Cc1c(-c2noc(-c3ccc(OC(C)C)c(C#N)c3)n2)ccc2c1CCN(CC(=O)NC[C@@H](C)O)C2` [Example 120, 2-[6-(5-{3-cyano-4-[(1-methylethyl)oxy]phenyl}-1,2,4-oxadiazol-3-yl)-5-methyl-3,4-dihydro-2(1H)-isoquinolinyl]-N-[(2R)-2-hydroxypropyl]acetamide hydrochloride] the EC50 was no more than 10 nM. Work on `Cc1c(-c2noc(-c3ccc(OC(C)C)c(C#N)c3)n2)ccc2c1CCN(CC(=O)NC[C@H](C)O)C2` [Example 121, 2-[6-(5-{3-cyano-4-[(1-methylethyl)oxy]phenyl}-1,2,4-oxadiazol-3-yl)-5-methyl-3,4-dihydro-2(1H)-isoquinolinyl]-N-[(2S)-2-hydroxypropyl]acetamide hydrochloride] yielded an EC50 of no more than 10 nM. Work on `Cc1c(-c2noc(-c3ccc(OC(C)C)c(C#N)c3)n2)ccc2c1CCN(C(=O)CN)CC2` [Example 140, 5-[3-(3-glycyl-6-methyl-2,3,4,5-tetrahydro-1H-3-benzazepin-7-yl)-1,2,4-oxadiazol-5-yl]-2-[(1-methylethyl)oxy]benzonitrile hydrochloride] yielded an EC50 of no more than 100 nM. `CCCNc1ncc(-c2nc(-c3ccc4c(c3)CCN(C[C@H](O)CO)CC4)no2)cc1C#N` [Example 143, 5-(3-{34[(2S)-2,3-dihydroxypropyl]-2,3,4,5-tetrahydro-1H-3-benzazepin-7-yl}-1,2,4-oxadiazol-5-yl)-2-(propylamino)-3-pyridinecarbonitrile hydrochloride] gave an EC50 of no more than 1000 nM. `CCCNc1ncc(-c2nc(-c3ccc4c(c3C)CCN(C[C@H](O)CO)CC4)no2)cc1C#N` [Example 145, 5-(3-{34[(2S)-2,3-dihydroxypropyl]-6-methyl-2,3,4,5-tetrahydro-1H-3-benzazepin-7-yl}-1,2,4-oxadiazol-5-yl)-2-(propylamino)-3-pyridinecarbonitrile] was tested, and the EC50 was no more than 1000 nM. Molecule `CCCNc1ncc(-c2nc(-c3ccc4c(c3C)CCN(C(CO)CO)CC4)no2)cc1C#N` [Example 149, 5-(3-{3-[2-hydroxy-1-(hydroxymethyl)ethyl]-6-methyl-2,3,4,5-tetrahydro-1H-3-benzazepin-7-yl}-1,2,4-oxadiazol-5-yl)-2-(propylamino)-3-pyridinecarbonitrile] has an EC50 of no more than 1000 nM. In the case of `CCCNc1ncc(-c2nc(-c3ccc4c(c3)CCN(C(CO)CO)CC4)no2)cc1C#N` [Example 150, 5-(3-{3-[2-hydroxy-1-(hydroxymethyl)ethyl]-2,3,4,5-tetrahydro-1H-3-benzazepin-7-yl}-1,2,4-oxadiazol-5-yl)-2-(propylamino)-3-pyridinecarbonitrile dihydrochloride], the EC50 is reported as no more than 1000 nM.

Each molecule was assayed against T2, S1P1 (PathHunter CHO-K1 EDG1 β-Arrestin cell line) (Homo sapiens, UniProt P21453) (assay: S1P-1 β-Arrestin recruitment assay). Conditions: CHO-K1 EDG1 β-Arrestin cells, chemi-luminescence.
T2 construct: host or cells: PathHunter CHO-K1 EDG1 β-Arrestin cell line
T2 sequence (P21453 whole entry): as above
T2 sequence (P32121 whole entry partner): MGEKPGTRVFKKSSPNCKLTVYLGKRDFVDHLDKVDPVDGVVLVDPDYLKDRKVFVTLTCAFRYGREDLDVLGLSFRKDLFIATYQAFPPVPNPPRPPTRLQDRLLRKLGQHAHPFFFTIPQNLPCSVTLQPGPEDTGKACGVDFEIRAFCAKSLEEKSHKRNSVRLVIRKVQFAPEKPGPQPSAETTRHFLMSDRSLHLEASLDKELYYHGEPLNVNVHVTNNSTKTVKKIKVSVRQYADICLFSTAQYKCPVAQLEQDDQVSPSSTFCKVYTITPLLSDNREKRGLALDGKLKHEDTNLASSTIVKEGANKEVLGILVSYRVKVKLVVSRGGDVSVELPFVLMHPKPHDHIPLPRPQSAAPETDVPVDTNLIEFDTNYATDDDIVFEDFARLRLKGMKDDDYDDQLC
Format: cell-based
Experimental: S1P-1 β-Arrestin Recruitment Assay
β-Arrestin recruitment assays were carried out using the PathHunter CHO-K1 EDG1
β-Arrestin cell line (DiscoveRx Corporation) in a chemi-luminescence detection assay. This cell line stably expresses β-Arrestin 2 and S1P1 fused to complementing portions of β-galactosidase (‘EA’ and ‘pro-link’, respectively) which associate upon Arrestin recruitment to form functional β-galactosidase enzyme.
Cells were grown to 80% confluency in Growth Medium (F12 nutrient HAMS supplemented with 10% heat-inactivated USA FBS, 1% L-glutamax, 800 μg/ml Geneticin and 300 μg/ml Hygromycin). Cells were harvested from the flask using Enzyme Free Cell Dissociation Buffer (Gibco) and washed from flasks with Optimem solution (Gibco). Cells were then centrifuged at 1000 rpm for 2-3 min and resuspended in Assay Buffer (Prepared from Sigma kit H1387 supplemented with 20 ml/L HEPES, 4.7 ml/L NaHCO3, 0.1% pluronic acid F-68 solution, 0.1% BSA and adjusted to pH 7.4 using sodium hydroxide at 1×10^6 cells/ml. Cells were dispensed into assay plates containing compounds (100n1/well of a solution of test compound in 100% DMSO) at 1×10^4 cells/well and incubated at 37° C./5% CO2 for 90 min followed by 15 min at room temperature. 5 μl detection mix (1 part Galacton Star, 5 parts Emerald II, 19 parts Assay Buffer; DiscoveRx) were added per well and the plates incubated at room temperature for 60 min. Luminescence was quantified using a Viewlux plate reader.
For `CC(C)Oc1ccc(-c2nc(-c3ccc4c(c3)CCN(CCC(=O)N(C)C)CC4)no2)cc1C#N` [Example 23, 3-[7-(5-{3-Cyano-4-[(1-methylethyl)oxy]phenyl}-1,2,4-oxadiazol-3-yl)-1,2,4,5-tetrahydro-3H-3-benzazepin-3-yl]-N,N-dimethylpropanamide], the EC50 was no more than 100 nM. `COCCN1CCc2c(cccc2-c2nnc(-c3ccc(OC(C)C)c(C#N)c3)s2)C1` [Example 37, 2-[(1-Methylethyl)oxy]-5-(5-{2-[2-(methyloxy)ethyl]-1,2,3,4-tetrahydro-5-isoquinolinyl}-1,3,4-thiadiazol-2-yl)benzonitrile] gave an EC50 of no more than 100 nM. For `CC(C)Oc1ccc(-c2nc(-c3cccc4c3CCN(C(=O)CCN)C4)no2)cc1C#N` [Example 88, 5-[3-(2-β-alanyl-1,2,3,4-tetrahydro-5-isoquinolinyl)-1,2,4-oxadiazol-5-yl]-2-[(1-methylethyl)oxy]benzonitrile hydrochloride], the EC50 was no more than 100 nM. In the case of `CC(C)Nc1ncc(-c2nc(-c3ccc4c(c3)CCN(C(CO)CO)CC4)no2)cc1C#N` [Example 108, 5-(3-{3-[2-hydroxy-1-(hydroxymethyl)ethyl]-2,3,4,5-tetrahydro-1H-3-benzazepin-7-yl}-1,2,4-oxadiazol-5-yl)-2-[(1-methylethyl)amino]-3-pyridinecarbonitrile hydrochloride], the EC50 is reported as no more than 100 nM. For `Cc1c(-c2noc(-c3ccc(OC(C)C)c(C#N)c3)n2)ccc2c1CCN(C(=O)CNC[C@H](O)CO)C2` [Example 126, 5-[3-(2-{N-[(2S)-2,3-dihydroxypropyl]glycyl}-5-methyl-1,2,3,4-tetrahydro-6-isoquinolinyl)-1,2,4-oxadiazol-5-yl]-2-[(1-methylethyl)oxy]benzonitrile hydrochloride], the EC50 was no more than 10 nM. With `Cc1c(-c2noc(-c3ccc(OC(C)C)c(C#N)c3)n2)ccc2c1CCN(C(=O)CNC(CO)CO)C2` [Example 127, 5-[3-(2-{N-[2-hydroxy-1-(hydroxymethyl)ethyl]glycyl}-5-methyl-1,2,3,4-tetrahydro-6-isoquinolinyl)-1,2,4-oxadiazol-5-yl]-2-[(1-methylethyl)oxy]benzonitrile hydrochloride] the EC50 was no more than 10 nM. `Cc1c(-c2noc(-c3ccc(OC(C)C)c(C#N)c3)n2)ccc2c1CCN(C(=O)CN[C@H](C)CO)C2` [Example 128] showed an EC50 of no more than 10 nM.
